Consider three compounds from patent US20130280214A1, “POLYCYCLIC HETEROCYCLE DERIVATIVES AND METHODS OF USE THEREOF FOR THE TREATMENT OF VIRAL DISEASES” (Merck Sharp & Dohme Corp., priority 2010, published 2013).

Structures are written as SMILES. Where two headings read alike, the source gives them in different places.

Series [1] concerns HCV replicon. Briefly: RHEPLUC assay (replicon luciferase, EC50 of single agents). It counts as cell-based, Hepatitis C virus (HCV). The settings on record: Hepatitis C virus. The procedure:
The previously determined EC50 for each test compound is then placed in the middle of the combination study titration curve.
Test compounds are ordered at 4000× final concentration, one or two days before the assay, and are diluted 1/10 in DMSO (400× concentration). The diluted first test compound (400×) is distributed in a first low dead volume plate as described in FIG. 1. The diluted second test compound (400×) is distributed in a second low dead volume plate as described in FIG. 2.
To obtain maximum luciferase signal (0% inhibition control), 100% DMSO is added to the 200× test compound mix plate. For minimum luciferase signal (100% inhibition control), a known NS5A inhibitor (Compound A, EC50 of 0.01 nM, made as described in International Patent Application No. PCT/US2010/028653) is used at 1 nM final concentration. Accordingly, 6 μL of 200 nM Compound A is added to the 200× test compound mix plate (see FIG. 4).
On the day of the experiment, Complete growth media (10 μL) is added to all wells in a 384 well assay plate, then 150 nL per well from the test compound mix plate is added to the assay plate.
The cell monolayer is rinsed with pre-warmed PBS (˜37° C.), then pre-warmed trypsin (0.25%, ˜37° C.) is added and the cells are incubated for 2 to 5 minutes in 5% CO2 at 37° C. Complete growth media is then added, cells are mixed and counted, and then diluted in complete growth media to a final concentration of 1.0×10^5 cells/mL. […]
Bright-Glo Luciferase reagent is prepared as specified by the kit instructions and kept in the dark until the reagent has reached room temperature. […] The plate is allowed to incubate for 5 minutes at room temperature, then the plate is placed on a reader within 30 minutes after incubation is complete, and the luminescence is monitored at 0.5 seconds per well.
Using the RHEPLUC assay, EC50 values were calculated prior to initiation of combination studies for a selected Polycyclic Heterocycle Derivative of the present invention (compound 2) and for two first additional therapeutic agents of the present invention (compounds F5 and F7).

Series [2] can be described thus: Cytotoxicity assay (CellTiter Blue). The class given is cell-based. The conditions noted are these: CellTiter Blue, cells treated 72 hours. As for the experimental part: (§1) The cytotoxicity of compounds of Table 1 and of the additional therapeutic agents used in the compositions and methods of the present invention can be measure using the assay described below.
(§2) Compounds are ordered 1 or 2 days before the experiment. Compounds and cells are prepared using the method described in Example 2 for the RHEPLUC assay (See FIG. 1) or combination study (See FIG. 2)
(§3) After 3 day incubation of cells with individual test compounds, cytotoxicity is determined using CellTiter Blue as described in the assay protocol below.
(§4) The CellTiter Blue solution (4 mL) is diluted with 1× Dulbecco's PBS (16 mL). 5 μL of the resulting solution is added to each well of the 384 well assay plate containing cells treated with compound for 72 hours. The plate is shaken for 10 seconds, then incubated in 5% CO2 at 37° C. for 1 hour. The plate is then shaken again for 10 seconds and the fluorescence is measured at excitation wavelength 540 nm and emission wavelength 590 nm.
(§5) NOTE: cells (all genotypes and mutants) are cultured in DMEM/10% FBS in the presence of G418. During the assay G418 is absent.
(§6) For cytotoxicity assays data is analyzed to obtain the CC50 of each compound tested alone and in combination. The analysis uses the average of 100% cytotoxicity (media only without cells) and 0% cytotoxicity (100% viability, 0.5% DMSO in the presence of cells) to calculate the percentage of compound cytotoxicity and CC50 using the following 4 parameter equation:
(§7) Wherein average low=100% cytotoxicity (media only) and average high=100% viability (0.5% DMSO).
(§8) CC50 values were calculated for a selected Polycyclic Heterocycle Derivative of the present invention (compound 2) and for […] first additional therapeutic agents of the present invention. The therapeutic index for the selected compounds was also calculated, wherein TI=CC50/EC50.

Series [3] deals with replicon cells. Briefly: Cytotoxicity assay (CellTiter Blue). The settings on record: TI=CC50/EC50. The class given is cell-based. The procedure:
as §1, §2, §3, §4, §5, §6, §7, §8

Series [4] concerns genotype 1a replicon cells. Kind of series: 3-day cell-based HCV replicon assay (Taqman). The conditions noted are these: Hepatitis C virus. The procedure: The replicon RNA level was measured using real time PCR (Taqman assay). […] EC50 was defined as the concentration of inhibitor necessary to achieve ΔCT=1 over the projected baseline; EC90 the concentration necessary to achieve ΔCT=3.2 over the baseline. Alternatively, to quantitate the absolute amount of replicon RNA, a standard curve was established by including serially diluted T7 transcripts of replicon RNA in the Taqman assay. All Taqman reagents were from PE Applied Biosystems. Such an assay procedure was described in detail in e.g. Malcolm et al., Antimicrobial Agents and Chemotherapy 50: 1013-1020 (2006).

In series [5] the test system is genotype 1a replicon cells. Kind of series: 15-day cell-based HCV replicon curing assay. The conditions noted are these: genotype 1a replicon cells treated 15 days. Also noted: species or system Hepatitis C virus (HCV).
Where [6] appears, read: RHEPLUC assay, single agent, 72 hours incubation.

Consider `COC(=O)N[C@H](C(=O)N1CCC[C@H]1c1ncc(-c2ccc(-c3cc4cc(-c5cnc([C@@H]6CCCN6C(=O)[C@@H](NC(=O)OC)C(C)C)[nH]5)ccc4o3)cc2)[nH]1)C(C)C` [Compound 2], for which the EC50 in series [1] (setting [6]) came to 0.004 nM. In addition, in series [2], the CC50 at 72 h amounted to 9700 nM. Further, in series [3], the “Therapeutic Index” value worked out at 2425000. In addition, the EC90 in series [4] (printed as 1×EC90, read-out: EC90) was found to be 0.006 nM.

For `COC(=O)NC(C(=O)N1CCC[C@H]1c1ncc(-c2ccc3oc(-c4ccc(-c5cnc([C@@H]6CCCN6C(=O)[C@H](NC(=O)OC)c6ccccc6)[nH]5)cc4)cc3c2)[nH]1)c1ccccc1` (stereo partly shown) [Compound A, reference compound], the EC50 in series [1] (known NS5A inhibitor used as 100% inhibition control, assay of the value not stated) was 0.01 nM.

As for `C=C[C@@H]1C[C@]1(NC(=O)[C@@H]1C[C@@H]2CN1C(=O)[C@H](C(C)(C)C)NC(=O)O[C@@H]1C[C@H]1CCCCCc1nc3ccc(OC)cc3nc1O2)C(=O)NS(=O)(=O)C1CC1` [Compound F5], in series [1] (setting [6]), the EC50 was found to be 0.322 nM. For the same compound, the CC50 at 72 h in series [2] came to 35000 nM. Further, the “Therapeutic Index” value in series [3] is given as 108865. In addition, the EC90 in series [4] (printed value is three times the EC90, read-out: 3×EC90) was determined as 7.5 nM. Moreover, the “NS3 (amino acid residues 1-180) population sequence analysis, resistance mutations” value in series [5] was “low levels of D168G and P88A”.
